The text below walks through data of patent publication US8895581B2, “1H-imidazo[4,5-c]quinolines” (Boehringer Ingelheim International GmbH, priority 2010, dated 2014).

Sequence of Recombinant human PDK1 enzyme (aa 52-556) (O15530 52-556): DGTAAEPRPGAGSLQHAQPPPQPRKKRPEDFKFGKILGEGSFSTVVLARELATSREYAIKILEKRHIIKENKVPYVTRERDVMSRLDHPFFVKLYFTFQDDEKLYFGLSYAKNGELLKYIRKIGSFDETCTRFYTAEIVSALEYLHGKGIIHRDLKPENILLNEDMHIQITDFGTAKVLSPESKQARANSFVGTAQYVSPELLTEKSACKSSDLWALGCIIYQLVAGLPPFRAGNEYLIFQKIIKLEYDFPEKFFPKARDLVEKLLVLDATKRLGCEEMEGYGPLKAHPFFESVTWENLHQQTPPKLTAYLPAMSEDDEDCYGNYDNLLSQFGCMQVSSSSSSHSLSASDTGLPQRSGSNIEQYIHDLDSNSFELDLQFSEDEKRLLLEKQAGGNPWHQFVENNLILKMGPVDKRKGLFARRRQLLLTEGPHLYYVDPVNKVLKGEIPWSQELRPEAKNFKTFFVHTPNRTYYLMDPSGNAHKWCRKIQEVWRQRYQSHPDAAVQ

For this test, the target named is Recombinant human PDK1 enzyme (aa 52-556) (Homo sapiens (Human), UniProt O15530). Description: PDK1 kinase assay. It is filed as biochemical. The conditions noted are these: 25 μM ATP solution with gamma-P33-ATP, PDKtide substrate, 90 min at RT. As for the experimental part: The activity of the compounds according to the invention on the kinase PDK1 which inhibits the signal transduction pathway is determined in an in vitro kinase assay with recombinantly prepared protein:
Recombinant human PDK1 enzyme (aa 52-556) linked at its N-terminal end to His6 is isolated from baculovirus-infected insect cells. Purified enzyme may be obtained for example from the University of Dundee, Scotland. The following components are combined in a well of a 96-well round-based dish (Greiner bio-one, No. 650101): • 1. 15 μL of compound to be tested in varying concentrations (e.g. starting at 10 μM, and diluted in steps of 1:5) in APT buffer (50 mM Tris/Cl pH7.5; 0.05% β-mercaptoethanol; 10 mM Mg-acetate; 0.0166% Tween 20; 3.33% DMSO) • 2. 15 μL His6-PDK1 (aa 52-556) 3.33 ng/well) and PDKtide (KTFCGTPEYLAPEVRRE […]), synthesised by Pepceuticals Limited, Nottingham, United Kingdom; 25 μM final concentration); His6-PDK1 and PDKtide are together diluted accordingly in assay buffer (50 mM tris pH 7.5, 0.05% β-mercaptoethanol, 10 mM Mg-acetate); PDKtide is present in this mixture as an 83.3 μM solution. These 30 μl are routinely incubated for 30 min at RT. • 3. 20 μL ATP solution (25 μM ATP with 1.0 μCi/well gamma-P33-ATP). The final concentration of Tween 20 is 0.005%.
The reaction is started by adding the ATP solution and the mixture is incubated for 90 min at RT. At the start of the reaction the dishes are shaken gently. The reaction is stopped by the addition of 50 μL/well of 500 mM phosphoric acid (H3PO4) and incubated for about 20 min at RT. The precipitate is transferred by harvesting onto filter plates (96-well microtitre filter plate: UniFilter GF/C; Perkin Elmer; No. 6005174), then washed 6 times with 50 mM H3PO4 and dried at 60° C. Then the plate is stuck down with sealing tape, 25 μL/well of scintillation solution (Microscint 0; Perkin Elmer; No. 6013611) are added and the amount of P33 precipitated is measured using the Wallac Betacounter. The measured data are evaluated using Graphpad Prism software.
As for `CCOc1nc2cnc3ccc(C#CCNC(=O)c4cncn(Cc5ccc(F)c(F)c5)c4=O)cc3c2n1C` [V-1, 1-(3,4-difluoro-benzyl)-6-oxo-1,6-dihydro-pyrimidine-5-carboxylic acid [3-(2-ethoxy-1-methyl-1H-imidazo[4,5-c]quinolin-8-yl)-prop-2-ynyl]-amide], the half-inhibitory concentration (IC50) was 33 nM.

As to `Cc1cc(C(=O)NCC#Cc2ccc3ncc4nc(C)n(C(C)C)c4c3c2)c(=O)n([C@H](C)c2ccc(F)c(F)c2)n1` [II-1], the concentration for half-maximal inhibition (IC50) amounted to 2 nM.

For `CCn1cnc2cnc3ccc(C#CCNC(=O)c4cncn(Cc5ccc(F)c(F)c5)c4=O)cc3c21` [III-31], the concentration for half-maximal inhibition (IC50) stood at 1 nM.

As to `CCc1c(C(=O)NCC#Cc2ccc3ncc4nc(C)n(C(C)C)c4c3c2)c(=O)n(Cc2ccc(F)c(F)c2)n1C` [II-12], the IC50 was determined as 5 nM.

Consider `CCc1nc2cnc3ccc(C#CCNC(=O)c4cncn(Cc5ccc(F)c(F)c5)c4=O)cc3c2n1C` [V-3], for which the 50% inhibitory concentration (IC50) is 8 nM.

Take `Cc1nc2cnc3ccc(C#CCNC(=O)c4cccn([C@@H](CO)c5cccc(F)c5)c4=O)cc3c2n1[C@H]1CC[C@H](N(C)C)CC1` [III-24]: the 50% inhibitory concentration (IC50) came to 3 nM.

With `Cc1nc2cnc3ccc(C#CCNC(=O)c4cccn(Cc5ccc(F)c(F)c5)c4=O)cc3c2n1C1CCN(C)CC1` [II-34], the IC50 was 6 nM.

For the compound `COCCc1nc2cnc3ccc(C#CCNC(=O)c4cncn(Cc5ccc(F)c(F)c5)c4=O)cc3c2n1C` [V-5, 1-(3,4-difluoro-benzyl)-6-oxo-1,6-dihydro-pyrimidine-5-carboxylic acid {3-[2-(2-methoxy-ethyl)-1-methyl-1H-imidazo[4,5-c]quinolin-8-yl]-prop-2-ynyl}-amide], the IC50 stood at 24 nM.

For `O=C(NCC#Cc1ccc2ncc3ncn([C@H]4CCNC4)c3c2c1)c1cncn(Cc2ccc(F)c(F)c2)c1=O` [I-15], the half-maximal inhibitory concentration (IC50) was found to be 28 nM.

In the case of `O=C(NCC#Cc1ccc2ncc3ncn([C@@H]4CCNC4)c3c2c1)c1cccn([C@H](CO)c2ccccc2)c1=O` [III-1], the half-inhibitory concentration (IC50) was 18 nM.

Regarding `O=C(NCC#Cc1ccc2ncc3ncn([C@H]4CCCNC4)c3c2c1)c1cncn(Cc2ccc(F)c(F)c2)c1=O` [I-12], the IC50 was 9 nM.

As for `O=C(NCC#Cc1ccc2ncc3ncn(C4CCNCC4)c3c2c1)c1cncn(Cc2ccc(F)c(F)c2)c1=O` [I-14], the half-inhibitory concentration (IC50) was 8 nM.

Regarding `Cc1nc2cnc3ccc(C#CCNC(=O)c4cccn(Cc5ccc(F)c(F)c5)c4=O)cc3c2n1C1CCN(C(C)C)CC1` [II-31], the IC50 stood at 8 nM.

Consider `Cc1nc2cnc3ccc(C#CCNC(=O)c4cccn([C@@H](CO)c5ccccc5)c4=O)cc3c2n1C(C)C` [II-21], for which the 50% inhibitory concentration (IC50) turned out to be 2 nM.

As to `Cc1nc2cnc3ccc(C#CCNC(=O)c4cncn(Cc5ccc(F)c(F)c5)c4=O)cc3c2n1C` [III-34], the IC50 worked out at 8 nM.

As to `Cc1nc2cnc3ccc(C#CCNC(=O)c4cccn([C@@H](C)c5ccc(F)c(F)c5)c4=O)cc3c2n1[C@H]1CC[C@@H](N(C)C)CC1` [III-5], the concentration for half-maximal inhibition (IC50) is 1 nM.

With `Cc1nc2cnc3ccc(C#CCNC(=O)c4cccn([C@@H](CO)c5cccc(F)c5)c4=O)cc3c2n1[C@H]1CC[C@@H](N(C)C)CC1` [III-25], the IC50 amounted to 4 nM.

For the compound `CN1CC[C@H](n2cnc3cnc4ccc(C#CCNC(=O)c5cc(Cl)nn(Cc6ccc(F)c(F)c6)c5=O)cc4c32)C1` [III-16], the concentration for half-maximal inhibition (IC50) was 11 nM.

Consider `COCc1nc2cnc3ccc(C#CCNC(=O)c4cncn(Cc5ccc(F)c(F)c5)c4=O)cc3c2n1C` [V-7], for which the IC50 is 41 nM.

With `Cc1nc2cnc3ccc(C#CCNC(=O)c4cccn([C@H](C)c5ccc(F)c(F)c5)c4=O)cc3c2n1C(C)C` [II-7], the concentration for half-maximal inhibition (IC50) was 55 nM.

As to `O=C(NCC#Cc1ccc2ncc3ncn(C4CCC4)c3c2c1)c1cncn(Cc2ccc(F)c(F)c2)c1=O` [I-3], the IC50 is 4 nM.

Consider `O=C(NCC#Cc1ccc2ncc3nc[nH]c3c2c1)c1cncn(Cc2ccc(F)c(F)c2)c1=O` [I-1, 1-(3,4-difluoro-benzyl)-6-oxo-1,6-dihydro-pyrimidine-5-carboxylic acid [3-(1H-imidazo[4,5-c]quinolin-8-yl)-prop-2-ynyl]-amide], for which the half-inhibitory concentration (IC50) amounted to 1 nM.

On to `Cc1nc2cnc3ccc(C#CCNC(=O)c4cccn(Cc5ccc(F)c(F)c5)c4=O)cc3c2n1C(C)C` [II-3], for which the IC50 was determined as 2 nM.

Take `Cc1nc2cnc3ccc(C#CCNC(=O)c4cccn([C@H](C)C5CCCCC5)c4=O)cc3c2n1C(C)C` [II-8]: the IC50 was found to be 507 nM.

For the compound `Cc1nc2cnc3ccc(C#CCNC(=O)c4cccn(CC5CCOCC5)c4=O)cc3c2n1C(C)C` [II-24], the IC50 was 590 nM.

Consider `COc1nc2cnc3ccc(C#CCNC(=O)c4cncn(Cc5ccc(F)c(F)c5)c4=O)cc3c2n1C` [V-4], for which the IC50 was 18 nM.

On to `CC(C)N1CCC(n2cnc3cnc4ccc(C#CCNC(=O)c5cccn([C@@H](C)c6ccc(F)c(F)c6)c5=O)cc4c32)CC1` [III-2], for which the concentration for half-maximal inhibition (IC50) was 2 nM.

Regarding `O=C(NCC#Cc1ccc2ncc3ncn(C4CCNCC4)c3c2c1)c1cccn([C@H](CO)c2ccccc2)c1=O` [III-8], the half-inhibitory concentration (IC50) was 2010 nM.

Regarding `CN(C)Cc1nc2cnc3ccc(C#CCNC(=O)c4cncn(Cc5ccc(F)c(F)c5)c4=O)cc3c2n1C` [V-8, 1-(3,4-difluoro-benzyl)-6-oxo-1,6-dihydro-pyrimidine-5-carboxylic acid [3-(2-dimethylaminomethyl-1-methyl-1H-imidazo[4,5-c]quinolin-8-yl)-prop-2-ynyl]-amide], the IC50 amounted to 79 nM.

On to `Cc1nc2cnc3ccc(C#CCNC(=O)c4cccn([C@@H](C)c5ccc(F)c(F)c5)c4=O)cc3c2n1C(C)C` [II-17], for which the IC50 came to 1 nM.

Consider `Cc1nc2cnc3ccc(C#CCNC(=O)c4cccn([C@@H](C)c5ccc(F)c(F)c5)c4=O)cc3c2n1C1CCN(C)CC1` [III-6], for which the IC50 was 2 nM.

`O=C(NCC#Cc1ccc2ncc3ncn(CCCO)c3c2c1)c1cncn(Cc2ccc(F)c(F)c2)c1=O` [I-4]: the 50% inhibitory concentration (IC50) worked out at 2 nM.

For `O=C(NCC#Cc1ccc2ncc3ncn(C4CCOC4)c3c2c1)c1cccn([C@@H](CO)c2cccc(F)c2)c1=O` (stereo partly drawn) [III-22], the IC50 was 7 nM.

In the case of `CN1CCC(n2cnc3cnc4ccc(C#CCNC(=O)c5cc(Cl)nn(Cc6ccc(F)c(F)c6)c5=O)cc4c32)CC1` [III-14], the IC50 turned out to be 1 nM.

In the case of `CN(C)CCCn1cnc2cnc3ccc(C#CCNC(=O)c4cncn(Cc5ccc(F)c(F)c5)c4=O)cc3c21` [I-8], the IC50 was found to be 16 nM.

Turning to `Cc1nc2cnc3ccc(C#CCNC(=O)c4cccn(CC5CCCCC5)c4=O)cc3c2n1C(C)C` [II-18], the IC50 is 14 nM.

Turning to `Cc1nc2cnc3ccc(C#CCNC(=O)c4c(C)n(C)n(Cc5ccc(F)c(F)c5)c4=O)cc3c2n1C1CCOCC1` [III-21], the IC50 is 5 nM.

As for `Cc1nc2cnc3ccc(C#CCNC(=O)c4ccnn(Cc5ccc(F)c(F)c5)c4=O)cc3c2n1C1CCN(C(C)C)CC1` [III-4], the IC50 is 21 nM.

`Cc1nc2cnc3ccc(C#CCNC(=O)c4cccn([C@@H](CN)c5ccc(F)c(F)c5)c4=O)cc3c2n1C(C)C` [II-30]: the IC50 stood at 2 nM.

Consider `CN(C)CCn1cnc2cnc3ccc(C#CCNC(=O)c4cccn(Cc5ccccc5)c4=O)cc3c21` [III-10], for which the IC50 is 277 nM.

In the case of `CN(C)[C@H]1CC[C@H](n2cnc3cnc4ccc(C#CCNC(=O)c5cccn([C@@H](CO)c6cccc(F)c6)c5=O)cc4c32)CC1` [III-26], the half-maximal inhibitory concentration (IC50) was determined as 1 nM.

For the compound `CC(C)N1CCC(n2cnc3cnc4ccc(C#CCNC(=O)c5cncn(Cc6ccc(F)c(F)c6)c5=O)cc4c32)CC1` [I-11], the IC50 amounted to 11 nM.

As a reminder, the IC50 is the concentration at which inhibition is half-maximal.
